Laboratory results published in ChEMBL document CHEMBL1201862, “PubChem BioAssay data set” (2004).
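1) Cells in 96-well plates. 2) Compound, 48 h, 5 concentrations. 3) Linear interpolation between surrounding doses. 4) Unreached endpoint = highest concentration. GI50 = concentration required for 50% inhibition of growth.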 Activity calls are given as the source filed them. Cut-off read from the data, not from the text of the source: active = GI50 up to about 1.1 µM and inactive = higher.

Key:
Experiment in all cases: growth of human tumour cells (NCI), 48 h
XF498 = test system: XF498
DLD-1 = test system: DLD-1
T47D = test system: T47D
RXF 631 = test system: RXF 631
DMS-273 = test system: DMS-273
KM-20L2 = test system: KM-20L2
LXFL 529 = test system: LXFL 529
M19-MEL = test system: M19-MEL
SNB-78 = test system: SNB-78

Row | Structure (SMILES) | GI50 (XF498) | GI50 (DLD-1) | GI50 (T47D) | GI50 (RXF 631) | GI50 (DMS-273) | GI50 (KM-20L2) | GI50 (LXFL 529) | GI50 (M19-MEL) | GI50 (SNB-78)
1 | O=C(NC(=O)c1ccccc1[N+](=O)[O-])Nc1ccc(Oc2ncc(Br)cn2)c(Cl)c1 | 0.00723 µM (active) | 0.0148 µM (active) | 87.1 nM (active) | 0.0284 µM (active) | 0.0165 µM (active) | 0.022 µM (active) | 0.0302 µM (active) | 0.0196 µM (active) | –
2 | Cc1ccc(-c2c(N)[n+]([O-])c3ccccc3[n+]2[O-])cc1 | 3.71 µM (inactive) | 13.1 µM (inactive) | – | 1.65 µM (inactive) | 13.4 µM (inactive) | 15 µM (inactive) | 5.81 µM (inactive) | 11.7 µM (inactive) | 13 µM (inactive)
3 | NCCSSCc1ccccc1CSSCCN | > 100 µM (inactive) | 48.4 µM (inactive) | – | > 100 µM (inactive) | 48.9 µM (inactive) | > 100 µM (inactive) | 50 µM (inactive) | 29.2 µM (inactive) | > 100 µM (inactive)
4 | COc1cc2c(cc1O)[C@H](C)C(c1ccc(Cl)cc1)O2 (stereo partly specified) | 15.5 µM (inactive) | 24.8 µM (inactive) | – | 26 µM (inactive) | 16.5 µM (inactive) | 23.1 µM (inactive) | 17.2 µM (inactive) | 15.8 µM (inactive) | 21.3 µM (inactive)
5 | CC1=C(c2cc(C(=O)Nc3nccs3)nc(NC#N)n2)Sc2ccccc2N1 | > 100 µM (inactive) | > 100 µM (inactive) | – | > 100 µM (inactive) | > 100 µM (inactive) | > 100 µM (inactive) | > 100 µM (inactive) | > 100 µM (inactive) | –
6 | COC(=O)C1=CC2OC13CC1CCC3(C2=O)C1(C)C (stereo unspecified) | 3.77 µM (inactive) | – | – | 13.9 µM (inactive) | 11.2 µM (inactive) | 13.3 µM (inactive) | 4.49 µM (inactive) | 11.5 µM (inactive) | 14.4 µM (inactive)
7 | C/C(CC(=O)Nc1ccc(NC(=O)C/C(C)=N\NC(N)=O)cc1)=N/NC(N)=O | > 92.3 µM (inactive) | > 45.2 µM (inactive) | – | 33 µM (inactive) | > 37.1 µM (inactive) | > 100 µM (inactive) | 65.9 µM (inactive) | > 100 µM (inactive) | > 100 µM (inactive)
8 | CCCCCCCCCCCCNC(=S)OCCCC | > 100 µM (inactive) | > 100 µM (inactive) | – | > 100 µM (inactive) | > 100 µM (inactive) | > 100 µM (inactive) | > 100 µM (inactive) | 42.2 µM (inactive) | > 100 µM (inactive)
9 | Cc1cc(=O)n2c3c(c4c(cc13)c(CO)cc(=O)n4C)OC2 | 10.7 µM (inactive) | 15.7 µM (inactive) | – | 5.6 µM (inactive) | 8.85 µM (inactive) | 29.9 µM (inactive) | 5.07 µM (inactive) | 12.2 µM (inactive) | 15 µM (inactive)
10 | COc1cccc2c1OC1Sc3ccccc3-c3nn(-c4ccccc4)c-2c31 (stereo unspecified) | > 100 µM (inactive) | > 100 µM (inactive) | – | > 100 µM (inactive) | > 100 µM (inactive) | > 100 µM (inactive) | > 100 µM (inactive) | > 100 µM (inactive) | > 100 µM (inactive)
11 | O=C(O)CCSC(=O)Nc1ccccc1Cl | > 100 µM (inactive) | > 100 µM (inactive) | – | > 100 µM (inactive) | > 100 µM (inactive) | > 100 µM (inactive) | > 100 µM (inactive) | > 100 µM (inactive) | > 100 µM (inactive)
